Laboratory results taken from patent US4342774A, “N-Acylcarnosine aluminum salt, its preparation, and a digestive ulcer remedy containing such salt” (Nippon Chemiphar Co., Ltd., priority 1979, dated 1982).
“And” between values parts separate entries of the source, which are not always exact repeats. Equal values may be shown once. Where a name gives a salt, the structure may show the parent alone.

Assays:
[1] = test system: Indomethacin-induced ulcer; assay: Indomethacin-induced ulcer, inhibitory effect, rats; assay type: in vivo, rat (male Donryu strain); conditions: 300 mg/kg, P.O.; for Ulcer index (total length of all lesions): ten minutes before pylorus ligation, indomethacin 25 mg/kg s.c.; for % Inhibition: vs control of the same run
Procedure: (§1) It will be noted that as control compounds for the purposes of comparison, use was made of L-carnosine, L-glutamine, N-acetyl-L-glutamine aluminum and aluminum sucrose sulfate which are known to have an anti-ulcer effect. The anti-ulcer effects and degrees of toxicity of the N-acylcarnosine aluminum compounds according to the invention were determined using rats in which instances various gastric ulcer models of rats were utilized to estimate the anti-ulcer effects.
Indomethacin-induced ulcer: Groups of ten male Donryu strain rats each weighing 200 to 215 g were deprived of food for 24 hours. Then, the pylorus was ligated under ether anethesia, after which indomethacin was administered subcutaneously in an amount of 25 mg/kg to each rat. Seven hours after the administration, each of the animals was scarificed under ether anethesia to remove its stomach, followed by immersion in a 1% formalin solution for ten minutes. The stomach which had been semi-fixed was incised along its greater curvature, and the length (mm) of each lesion formed in the mucous membrane was measured under a dissecting microscope (10×). The total length (mm) of all the lesions of each rat was indicated as an ulcer index. Test medicine samples were given orally ten minutes before the pylorus legation.

Shay's ulcer = Shay's ulcer (pylorus ligation), inhibitory effect, rats; assay type: in vivo, rat (male Donryu strain); conditions: P.O.; for Ulcer index (total area of all lesions) / % Inhibition: 1,000 mg/kg; for Ulcer index (total area of all lesions): immediately after pylorus ligation; for inhibition in vivo at 1000 mg/kg: 14 h, 1,000 mg/kg
Procedure: as §1
Shay's ulcer: Groups of ten male Donryu strain rats each weighing 210 to 230 g were deprived of food for 48 hours. The pylorus of each rat was ligated according to the method of Shay et al [Gastroenterology, 5, 43-61 (1945)]. Each of the animals was allowed to stand abstained from food and water for further 14 hours and then sacrificed to remove its stomach. After collection of the gastric juice, the ulcerated area (mm^2) in the forestomach of each rat was measured under a dissecting microscope (10x). The total area (mm^2) of all the lesions of each rat was indicated as an ulcer index. Test medicine samples were given orally immediately after the pylorus ligation.

Aspirin-induced ulcer = assay: Aspirin-induced ulcer, inhibitory effect, rats; assay type: in vivo, rat (male Donryu strain); conditions: 1,000 mg/kg, P.O.; for Ulcer index (total length of all lesions): immediately after pylorus ligation, aspirin 100 mg/kg; for % Inhibition: vs control of the same run
Procedure: as §1
Aspirin-induced ulcer: Groups of ten male Donryu strain rats each weighing 220 to 230 g were deprived of food for 24 hours. The pylorus of each rat was ligated under ether anethesia according to the method of S. Okabe et al [Jap. J. Pharmac. 24, 357-361 (1974)]. After the pylorus ligation, aspirin (100 mg/kg) was administered orally to each rat. Seven hours after the administration, each of the animals was sacrificed under ether anesthesia to remove its stomach. After collection of the gastric juice and treatment with a 1% formalin solution, the length (mm) of each lesion formed in the glandular portion was measured. The total length (mm) of all the lesions of each rat was indicated as an ulcer index. Test medicine samples were given orally immediately after the pylorus ligation.

Histamine-induced ulcer = assay: Histamine-induced ulcer, inhibitory effect, rats; assay type: in vivo, rat (male Donryu strain); conditions: P.O.; for Ulcer index (total length of all lesions): before histamine phosphate 300 mg/kg i.p.; for % Inhibition: vs control of the same run
Procedure: (§2) The anti-ulcer effects and degrees of toxicity of the N-acylcarnosine aluminum compounds according to the invention were determined using rats in which instances various gastric ulcer models of rats were utilized to estimate the anti-ulcer effects.
Histamine-induced ulcer: Groups of ten male Donryu strain rats each weighing 210 to 230 g were deprived of food for 48 hours and then administered intraperitoneally with histamine phosphate (300 mg/kg). Four hours after the administration, each of the animals was sacrificed under ether anesthesia, followed by removal of the stomach and immersion in a 1% formalin solution for ten minutes. The stomach which had been semi-fixed was incised along the greater curvature, and the length (mm) of each lesion was measured under a dissecting microscope (10×). The total length (mm) of all the lesions of each rat was indicated as an ulcer index. Test medicine samples were given orally before the histamine administration.

[2] = Acute toxicity, oral, rats; assay type: in vivo; conditions: rat, in vivo, po; P.O., male rats, observed seven days
Procedure: (§3) Acute toxicity: Male and female Wister strain rats each weighing 150 to 200 g were divided into two groups, respectively, each group consisting of ten rats, and were administered orally with some of the N-acylcarnosine aluminum compounds according to the invention. The thus treated rats were visually observed for seven days after the administration.

rats = assay: Acute toxicity, oral, rats; assay type: in vivo; conditions: P.O., female rats, observed seven days; 10080 min
Procedure: as §3

Stress ulcer = Stress ulcer (water immersion restraint), inhibitory effect, rats; assay type: in vivo, rat (male Donryu strain); conditions: P.O.; for Ulcer index (total length of all lesions): ten minutes before immersion; for % Inhibition: vs control of the same run
Procedure: as §2
Stress ulcer: Groups of ten male Donryu strain rats each weighing 240 to 260 g were placed in a stress cage which served to immobilize the animals therein and then immersed in a water bath of 23° C. on a level with the xiphoid process according to the method of K. Takagi et al [Jap. […] Seven hours after the immersion, each of the animals was withdrawn from the water bath and immediately sacrificed by a blow on the head, followed by removal of the stomach of each rat. The stomach was slightly inflated by injecting a 1% formalin solution and then immediately immersed in a 1% formalin solution, followed by incising the stomach along its greater curvature to measure the length (mm) of each lesion in the glandular portion under a dissecting microscope (10x). The total length (mm) of all the lesions of each rat was indicated as an ulcer index. Test medicine samples were given orally ten minutes before the immersion in water.

[3] = Rattus norvegicus, po, vs control of the same run

| Molecule | Ulcer index (total length of all lesions) [1] | % Inhibition [1] | Ulcer index (total area of all lesions) (Shay's ulcer) | inhibition in vivo at 1000 mg/kg (Shay's ulcer; [3]) [%] | Ulcer index (total length of all lesions) (Aspirin-induced ulcer) | % Inhibition (Aspirin-induced ulcer) | Ulcer index (total length of all lesions) (Histamine-induced ulcer; 300 mg/kg) | % Inhibition (Histamine-induced ulcer; 300 mg/kg) | Ulcer index (total length of all lesions) (Stress ulcer; 1,000 mg/kg) | % Inhibition (Stress ulcer; 1,000 mg/kg) | % Inhibition (Shay's ulcer; vs control of the same run) | also measured |
| --- | --- | --- | --- | --- | --- | --- | --- | --- | --- | --- | --- | --- |
| CC(=O)NCCC(=O)NC(Cc1c[nH]cn1)C(=O)O (racemic) [A, N-acetyl-DL-carnosine aluminum salt] | 6.5 ± 2.2 mm | 60.1% | 0.5 ± 0.5 mm^2 | 79.2 | 0.6 ± 0.6 mm | 96.6% | 9.6 ± 1.8 mm | 60.2% | 4.4 ± 2.2 mm | 71.1% | – | LD50 at 168 h [2]: > 10000 mg/kg; LD50 (rats): > 10,000 mg/kg; Ulcer index (total length of all lesions) (Stress ulcer; 300 mg/kg): 8.0 ± 2.8 mm; % Inhibition (Stress ulcer; 300 mg/kg): 47.4% |
| CC(=O)NCCC(=O)N[C@@H](Cc1c[nH]cn1)C(=O)O [B, N-acetyl-L-carnosine aluminum salt] | 6.4 ± 2.2 mm | 61.9% | 0.6 ± 0.4 mm^2 | 76 | 0.6 ± 0.6 mm | 96.4% | 9.1 ± 1.9 mm | 60.4% | 4.8 ± 2.6 mm | 72.6% | – | LD50 at 168 h [2]: > 10000 mg/kg; LD50 (rats): > 10,000 mg/kg; Ulcer index (total length of all lesions) (Stress ulcer; 300 mg/kg): 9.2 ± 3.0 mm; % Inhibition (Stress ulcer; 300 mg/kg): 47.4% |
| CC(=O)NCCC(=O)N[C@@H](Cc1c[nH]cn1)C(=O)O [C, N-acetyl-L-carnosine aluminum salt] | – | – | 1.0 ± 0.7 mm^2 | – | – | – | – | – | – | – | 65.5% | – |
| CC(=O)NCCC(=O)N[C@@H](Cc1c[nH]cn1)C(=O)O [D, N-acetyl-L-carnosine aluminum salt] | – | – | 0.9 ± 0.9 mm^2 | – | – | – | – | – | – | – | 69.0% | – |
| CCC(=O)NCCC(=O)N[C@@H](Cc1c[nH]cn1)C(=O)O [E, N-propionyl-L-carnosine aluminum salt] | – | – | 0.7 ± 0.5 mm^2 | 77.4 | – | – | – | – | – | – | – | – |
| CCC(=O)NCCC(=O)N[C@@H](Cc1c[nH]cn1)C(=O)O [F, N-propionyl-L-carnosine aluminum salt] | – | – | 0.9 ± 0.7 mm^2 | – | – | – | – | – | – | – | 71.0% | – |
| CCCCCCC(=O)NCCC(=O)N[C@@H](Cc1c[nH]cn1)C(=O)O [G, N-heptanoyl-L-carnosine aluminum salt] | – | – | 0.9 ± 1.0 mm^2 | 71 | – | – | – | – | – | – | – | – |
| O=C(CCNC(=O)c1ccccc1)N[C@@H](Cc1c[nH]cn1)C(=O)O [H, N-benzoyl-L-carnosine aluminum salt] | – | – | 1.0 ± 0.9 mm^2 | 67.7 | – | – | – | – | – | – | – | – |
| COc1ccccc1C(=O)NCCC(=O)N[C@@H](Cc1c[nH]cn1)C(=O)O [I, N-(o-methoxy)benzoyl-L-carnosine aluminum salt] | – | – | 1.1 ± 0.8 mm^2 | 64.5 | – | – | – | – | – | – | – | – |
| NCCC(=O)N[C@@H](Cc1c[nH]cn1)C(=O)O [L-Carnosine, L-carnosine] | 17.3 ± 3.0 mm and 17.1 ± 3.1 mm | ~ 0% | – | 12.5 | – | – | 17.3 ± 3.2 mm and 18.0 ± 2.7 mm | 28.2% and 21.7% | 10.7 ± 2.2 mm and 12.1 ± 2.5 mm | 29.6% and 30.9% | – | Ulcer index (total length of all lesions) (Stress ulcer; 300 mg/kg): 14.2 ± 3.7 mm and 16.0 ± 4.0 mm; % Inhibition (Stress ulcer; 300 mg/kg): 6.6% and 8.6% |
| NC(=O)CC[C@H](N)C(=O)O [L-Glutamine, L-glutamine] | 9.5 ± 4.1 mm and 9.7 ± 3.9 mm | 41.8% and 42.3% | – | 8.3 | 6.0 ± 2.2 mm and 4.5 ± 1.5 mm | 66.1% and 73.2% | – | – | – | – | – | – |
| CC(=O)N[C@@H](CCC(N)=O)C(=O)O.[Al] [N-Acetyl-L-glutamine aluminum, N-acetyl-L-glutamine aluminum] | – | – | – | – | – | – | – | – | – | – | – | inhibition in vivo at 2000 mg/kg (Shay's ulcer; Rattus norvegicus, po, 14 h, 2,000 mg/kg, vs control of the same run): 67.7%; Ulcer index (total length of all lesions) (Histamine-induced ulcer; 2,000 mg/kg): 8.5 ± 3.0 mm; % Inhibition (Histamine-induced ulcer; 2,000 mg/kg): 63.0%; Ulcer index (total length of all lesions) (Stress ulcer; 2,000 mg/kg): 5.5 ± 4.8 mm; % Inhibition (Stress ulcer; 2,000 mg/kg): 68.6% |
| aluminum sucrose sulfate | 7.8 ± 3.0 mm and 7.4 ± 2.8 mm | 52.1% and 56.0% | 0.8 ± 0.6 mm^2 and 0.9 ± 0.5 mm^2 and 0.7 ± 0.8 mm^2 and 0.8 ± 0.9 mm^2 | – | 3.7 ± 2.1 mm and 2.0 ± 1.1 mm | 79.1% and 88.1% | 14.4 ± 1.5 mm and 10.7 ± 2.1 mm | 40.2% and 53.5% | 6.5 ± 6.0 mm and 7.3 ± 6.8 mm | 56.7% and 58.3% | 72.4% and 71.0% and 71.7% and 68.0% | – |
